One assay concerns the target T1, CD40:CD154 interaction (Homo sapiens, UniProt P29965).
T1 construct: made in house; host or cells: Pichia (CD40-Ig only)
T1 sequence (P29965 116-261 limits assumed): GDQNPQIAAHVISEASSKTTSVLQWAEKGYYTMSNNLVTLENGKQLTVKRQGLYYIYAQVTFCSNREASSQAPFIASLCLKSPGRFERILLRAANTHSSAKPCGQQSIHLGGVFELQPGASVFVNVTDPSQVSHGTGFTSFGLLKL
As to the kind of experiment: Binding assay (ELISA): compound binds CD154 and inhibits binding of biotin-CD154 to immobilized CD40-Ig (Example 7). As to conditions: read-out: IC50 for CD40:CD154 binding interruption. From the text: (§1) IC50, as used herein, is the concentration at which a compound interrupts the interaction of a protein and its receptor to 50% interaction in the assay shown in Example 7 (for interruption of CD40:CD154 interaction) and Example 8 (for interruption of TNF-α:TNFRp60 interaction). Examples of such protein and receptor pairs are CD40:CD154 and TNF-α:TNFRp60.
Binding Assay to Assess whether a compound Binds CD154 and Inhibits CD40:CD154 Interaction
1) Ninety-six well plates of Nunc Maxisorp were coated with 100 μl of 5-10 μg/ml human CD40-Ig produced in Pichia cells, (in PBS pH 7.2) per well, covered with plate sealers (Costar, Cat. No. 3095) and stored overnight at 4° C.
2) The CD40-Ig-coated plates were shook out and blotted dry.
3) The CD40-Ig-coated plates were blocked with 300 μl per well of PBS (0.05% Tween-20, 1% BSA, pH 7.2) at RT for one hour or in the refrigerator for up to 3 weeks.
4) The CD40-Ig-coated plates were washed 3× with PBS+0.05% Tween-20 pH 7.4 with plate washer at RT.
5) The plates were optionally blotted dry.
6) Primary Screening of compounds: • a. Compounds were titrated in 100 mM Hepes+0.005% BSA pH 7.2 in Titertube (Bio-Rad Laboratories) and 50 μl of titrated compounds was then added into each well of the plate. IC50 parameters: • One 7 point curve per compound was generated where each point was run in triplicate. […] Fifty μl/well of 0.07-1.6 μg/ml biotin-CD154 in 100 mM Hepes+0.005% BSA (pH 7.2) was added per well. Final concentration of biotin-CD154 was […]. It was mixed with compound in each well in the plate. • c. The plates were covered with plate sealer and incubated for one-hour at RT.
7) The plates were washed 3× with plate washer with PBS+0.05% Tween-20 (pH 7.4) at RT.
8) The plates were optionally blotted dry.
9) 100 μl of a 1/300,000 dilution of HRP-Strep/Avidin (Jackson Immuno Research Code3 #016-030-084) was added to each well. Dilution buffer was: PBS+0.05% Tween-20. The plates were covered with plate sealer and incubated for one hour at room temperature.
10) The plates were washed with plate washer 3× at RT.
11) The plates were optionally blotted dry.
12) 100 μl/well of TMB(1-component) (Kirkegarrd & Perry Labs, Prod #50-76-04) was added to each well and incubated at RT about 10 min.
13) 100 μl/well of 0.18M H2SO4 was added to stop reaction in the plates.
14) The plates were read within 30 minutes of stopping the reaction at […] on a microplate reader (Molecular Devices Co.).
Compounds that bound to CD154 and blocked CD40:CD154 interaction prevented CD154 from binding to immobilized CD40-Ig and gave a low absorbance reading.
• 1. Total reaction: Reaction well contained 50 μl of 100 mM Hepes/0.005% BSA (no test compound) • 2. Positive control: Reaction well contained 10 μl of 1 mg/ml 5c8 (anti-CD154 mAb) and 50 μl of 100 mM Hepes/0.005% BSA. • 3. Blank control: Reaction well contained 100 μl 100 mM Hepes/0.005% BSA. • 4. Compound control: Titration series in triplicate of BIO-002108-00.
In general terms: An ELISA detects its analyte on a solid surface through an enzyme-linked reagent.

Assay [1] addresses T2, TNF-α:TNFRp60 interaction (Homo sapiens, UniProt P01375).
T2 construct: purchased R&D System
Kind of assay: Binding assay (ELISA): compound inhibits binding of biotin-TNF-α to immobilized TNFRp60 (Example 8). As to conditions: average value; read-out: IC50 for TNF-α:TNFRp60 binding interruption.
From the text: as §1
Binding Assay to Assess whether a Compound Binds to TNF-α and Inhibits TNF-α/TNFRp60 Interaction
1) Ninety-six well plates of Nunc Maxisorp were coated with 100 μl/well of 0.6 ug/ml tumor necrosis factor receptor p60 (TNFRp60) (Browning, J. L.; Douglas, I.; Ngam-ek, A.; Bourdon, P. R.; Ehrenfels, B. N.; Miatkowski, K.; Zafari, M.; Yampaglia, A. M.; Lawton, P.; Meier, W.; Benjamin, C. P.; Hession, C. J. Immunol. 1995, 154, 33-46) in PBS, pH 7.2, covered with plate sealers (Costar, Cat. No. 3095) and stored overnight at 4° C.
2) The coated plates were shook out and blotted dry.
3) TNFRp60-coated plates were blocked with 300 μl per well of PBS (0.05% Tween-20, 1% BSA, made from media prep) at 4° C. for one hour. Plates were stored for 3 weeks at 4° C. […]
14) The plates were read within 30 minutes of adding stop reagent at […] by microplate reader (Molecular Devices Co.) […]
Compounds that blocked TNF-α/TNFRp60 interaction prevented TNF-α from binding to immobilized TNFRp60 and gave a low absorbance reading. […]

Where [2] appears, read: compounds 12 and 14-21: 'considered to have' the IC50 range (not worded as 'shown').
[3] abbreviates: compounds 'shown to have' the IC50 range, assay of Example 7, top concentration 125 μM.

Like-named read-outs stand apart in the source and are kept apart here.

T2 sequence (P01375 77-233 limits assumed, species assumed): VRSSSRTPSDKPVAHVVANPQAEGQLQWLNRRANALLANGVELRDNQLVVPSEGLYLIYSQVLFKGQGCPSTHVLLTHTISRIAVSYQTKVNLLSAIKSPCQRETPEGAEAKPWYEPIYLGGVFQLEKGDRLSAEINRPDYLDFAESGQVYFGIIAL

For `CC(C)(C)[C@H](NC(=O)c1cc(-c2cc(C(=O)NCCCc3ccccc3)nc(C(=O)N3CCC[C@H]3CN3CCCC3)c2)cc(C(=O)N2CCC[C@H]2CN2CCCC2)n1)C(=O)O` [Compound 21], the IC50 on CD40:CD154 interaction (setting [2]) is 50 to 125 µM.

As to `O=C(NCCCc1ccc([N+](=O)[O-])cc1)c1cc(-c2cc(C(=O)NC(C(=O)O)C3CCCCC3)nc(C(=O)N3CCCC3CN3CCCC3)c2)cc(C(=O)N2CCCC2CN2CCCC2)n1` (stereo not shown) [Compound 7], the IC50 on CD40:CD154 interaction (setting [3]) lay within 50 to 125 µM.

Turning to `COC(=O)[C@@H](NC(=O)c1cc(-c2cc(C(=O)NCCCc3ccccc3)nc(C(=O)N3CCC[C@H]3CN3CCCC3)c2)cc(C(=O)N2CCC[C@H]2CN2CCCC2)n1)C1CCCCC1` [Compound 20], the IC50 on CD40:CD154 interaction (setting [2]) was in the range of 50 to 125 µM.

Turning to `CCC(C)C(NC(=O)c1cc(-c2cc(C(=O)NCc3cccc(OC)c3OC)nc(C(=O)N3CCCC3CN3CCCC3)c2)cc(C(=O)N2CCCC2CN2CCCC2)n1)C(=O)O` (stereo not shown) [Compound 2], the IC50 at CD40:CD154 interaction (setting [3]) is over 125 µM.

Turning to `CCC(C)C(NC(=O)c1cc(-c2cc(C(=O)NCc3ccccc3Br)nc(C(=O)N3CCCC3CN(C)C)c2)cc(C(=O)N2CCCC2CN(C)C)n1)C(=O)O` (stereo not shown) [Compound 17], at CD40:CD154 interaction (setting [2]), the IC50 is 50 to 125 µM.

Consider `O=C(Nc1cccc(S(=O)(=O)Nc2cc3ccccc3cc2C(=O)O)c1)Nc1cccc(S(=O)(=O)Nc2cc3ccccc3cc2C(=O)O)c1` [BIO-002108-00, reference compound], for which the IC50 was under 50 µM at CD40:CD154 interaction (setting [3]) and over 125 µM in assay [1].

As for `O=C(NC1CCc2ccccc21)c1cc(-c2cc(C(=O)NC(C(=O)O)C3CCCCC3)nc(C(=O)N3CCCC3CN3CCCC3)c2)cc(C(=O)N2CCCC2CN2CCCC2)n1` (stereo not shown) [Compound 12], the IC50 at CD40:CD154 interaction (setting [2]) lay within 50 to 125 µM.

As to `O=C(NCc1ccc2ccccc2c1)c1cc(-c2cc(C(=O)N[C@H](C(=O)O)C3CCCCC3)nc(C(=O)N3CCC[C@H]3CN3CCCC3)c2)cc(C(=O)N2CCC[C@H]2CN2CCCC2)n1` [Compound 13], at CD40:CD154 interaction (setting [3]), the IC50 fell in the range of 50 to 125 µM.

On to `O=C(NCCC(c1ccccc1)c1ccccc1)c1cc(-c2cc(C(=O)N[C@H](C(=O)O)C3CCCCC3)nc(C(=O)N3CCC[C@H]3CN3CCCC3)c2)cc(C(=O)N2CCC[C@H]2CN2CCCC2)n1` [Compound 5], for which the IC50 on CD40:CD154 interaction (setting [3]) is under 50 µM.

As for `CCC(C)C(NC(=O)c1cc(-c2cc(C(=O)NC(C)(C)Cc3ccc(F)cc3)nc(C(=O)N3CCCC3CN3CCCC3)c2)cc(C(=O)N2CCCC2CN2CCCC2)n1)C(=O)O` (stereo not shown) [Compound 3], the IC50 on CD40:CD154 interaction (setting [3]) was over 125 µM.

As for `O=C(NCCCc1ccc(Br)cc1)c1cc(-c2cc(C(=O)N[C@H](C(=O)O)C3CCCCC3)nc(C(=O)N3CCC[C@H]3CN3CCCC3)c2)cc(C(=O)N2CCC[C@H]2CN2CCCC2)n1` [Compound 14], the IC50 on CD40:CD154 interaction (setting [2]) was 50 to 125 µM.

Take `O=C(NCc1cccc(-c2ccccc2)c1)c1cc(-c2cc(C(=O)N[C@H](C(=O)O)C3CCCCC3)nc(C(=O)N3CCC[C@H]3CN3CCCC3)c2)cc(C(=O)N2CCC[C@H]2CN2CCCC2)n1` [Compound 6]: the IC50 at CD40:CD154 interaction (setting [3]) was under 50 µM.

Turning to `CCC(C)C(NC(=O)c1cc(-c2cc(C(=O)NCc3ccccc3Br)nc(C(=O)N3CCCC3CN3CCCCC3)c2)cc(C(=O)N2CCCC2CN2CCCCC2)n1)C(=O)O` (stereo not shown) [Compound 19], the IC50 at CD40:CD154 interaction (setting [2]) was in the range of 50 to 125 µM.

As for `O=C(NC/C=C/c1ccccc1)c1cc(-c2cc(C(=O)NC(C(=O)O)C3CCCCC3)nc(C(=O)N3CCCC3CN3CCCC3)c2)cc(C(=O)N2CCCC2CN2CCCC2)n1` (stereo not shown) [Compound 16], the IC50 at CD40:CD154 interaction (setting [2]) was in the range of 50 to 125 µM.

Regarding `O=C(NCCC(c1ccccc1)c1ccc([N+](=O)[O-])cc1)c1cc(-c2cc(C(=O)NC(C(=O)O)C3CCCCC3)nc(C(=O)N3CCCC3CN3CCCC3)c2)cc(C(=O)N2CCCC2CN2CCCC2)n1` (stereo not shown) [Compound 11], on CD40:CD154 interaction (setting [3]), the IC50 was under 50 µM.

As for `CCC(C)C(NC(=O)c1cc(-c2cc(C(=O)NCc3ccccc3Br)nc(C(=O)N3CCCC3CN3CCCC3)c2)cc(C(=O)N2CCCC2CN2CCCC2)n1)C(=O)O` (stereo not shown) [Compound 1], at CD40:CD154 interaction (setting [3]), the IC50 lay in the range of 50 to 125 µM.

With `O=C(NCCCc1ccccc1)c1cc(-c2cc(C(=O)NC(C(=O)O)C3CCCCC3)nc(C(=O)N3CCCC3CN3CCCC3)c2)cc(C(=O)N2CCCC2CN2CCCC2)n1` (stereo not shown) [Compound 4], the IC50 at CD40:CD154 interaction (setting [3]) was under 50 µM.

Turning to `Nc1cccc(C(CCNC(=O)c2cc(-c3cc(C(=O)NC(C(=O)O)C4CCCCC4)nc(C(=O)N4CCCC4CN4CCCC4)c3)cc(C(=O)N3CCCC3CN3CCCC3)n2)c2ccccc2)c1` (stereo not shown) [Compound 10], at CD40:CD154 interaction (setting [3]), the IC50 was 50 to 125 µM.

Regarding `Nc1ccc(CCCNC(=O)c2cc(-c3cc(C(=O)NC(C(=O)O)C4CCCCC4)nc(C(=O)N4CCCC4CN4CCCC4)c3)cc(C(=O)N3CCCC3CN3CCCC3)n2)cc1` (stereo not shown) [Compound 8], the IC50 at CD40:CD154 interaction (setting [3]) is 50 to 125 µM.

Regarding `O=C(NCCCCc1ccccc1)c1cc(-c2cc(C(=O)N[C@H](C(=O)O)C3CCCCC3)nc(C(=O)N3CCC[C@H]3CN3CCCC3)c2)cc(C(=O)N2CCC[C@H]2CN2CCCC2)n1` [Compound 15], the IC50 on CD40:CD154 interaction (setting [2]) was under 50 µM.

In the case of `CCC(C)C(NC(=O)c1cc(-c2cc(C(=O)NCc3ccccc3Br)nc(C(=O)N3CCCC3CN(C)C3CCCCC3)c2)cc(C(=O)N2CCCC2CN(C)C2CCCCC2)n1)C(=O)O` (stereo not shown) [Compound 18], the IC50 on CD40:CD154 interaction (setting [2]) is 50 to 125 µM.

Usually IC50 stands for the concentration at which inhibition is half-maximal.

(Values after patent US20070249682A1, “Novel CD40:CD154 binding interruptor compounds and use thereof to treat immunological complications” (priority 2000, published 2007).)
